US20090048295A1, “SUBSTITUTED 5,6,7,8-TETRAHYDROQUINOLINE DERIVATIVES, COMPOSITIONS, AND METHODS OF USE THEREOF” (priority 2007, published 2009)
Several values for one entry are separate records, joined by “and”; a condition that tells them apart may be missing. Equal entries are not always repeated.

Columns and labels:
C5a receptor [1] = biological target: T1, C5a receptor (Homo sapiens, UniProt P21730); experiment: [125I]-C5a Radioligand Binding Assay (competition binding, differentiated U937 cells); conditions: [125I]-C5a 0.05 nM, U937 cells, multiple values = duplicate experiments; for inhibition at 1 µM: read-out: [125I]-C5a Binding % Inhibition 1 μM, test compound 1 μM; for inhibition at 10 µM: read-out: [125I]-C5a Binding % Inhibition 10 μM, test compound 10 μM; for [125I]-C5a Binding % Inhibition 1 μM: test compound 1 μM; for [125I]-C5a Binding % Inhibition 10 μM: test compound 10 μM;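 on all read-outs here: cells preincubated with compound 30 min at room temperature, then 60 min at 4 °C with radioligand, bound counts read by scintillation, nonspecific binding defined with 100 nM C5a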
T1 sequence (P21730 1-350): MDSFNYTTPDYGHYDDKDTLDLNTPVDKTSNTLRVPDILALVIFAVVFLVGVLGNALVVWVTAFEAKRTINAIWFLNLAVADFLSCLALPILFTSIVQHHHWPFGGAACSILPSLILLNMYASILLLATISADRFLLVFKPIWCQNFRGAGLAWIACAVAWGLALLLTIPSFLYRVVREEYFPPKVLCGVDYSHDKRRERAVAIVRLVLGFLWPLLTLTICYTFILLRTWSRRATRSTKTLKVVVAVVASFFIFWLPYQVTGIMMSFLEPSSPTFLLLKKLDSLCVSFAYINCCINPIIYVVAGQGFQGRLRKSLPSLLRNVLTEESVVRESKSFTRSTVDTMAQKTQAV
Description: (§1) Competition binding assays for C5a receptors were performed by incubation of differentiated U937 cells (200,000 cells/well), test compound (1% DMSO) and [^125I]-C5a (Bolton & Hunter labeled, Perkin Elmer, specific activity=2200 Ci/mmol, 0.05 nM final) in binding buffer consisting of 50 mM HEPES, 5 mM MgCl2, 1 mM CaCl2, 0.5% protease-free BSA, 0.02% NaN3, pH 7.4. 100× solutions of test compounds were prepared in DMSO and further diluted in binding buffer. Non-specific binding was defined in wells containing 100 nM recombinant C5a. Cells and compound were pre-incubated for 30 min at RT. After addition of the radioligand, further incubation for 60 min occurred at 4° C. Cells were harvested on GF/B filters—presoaked in 0.5% polyethylenimine, followed by washing with binding buffer containing 500 mM NaCl, pH 7.4. Filter bound radioactivity was determined by liquid scintillation counting. IC50 and Ki values were calculated using non-linear regression in Graphpad Prism. Ki is calculated using the equation of Cheng and Prusoff (Biochem. Pharmacol. 1973, 22: 3099-3108)

C5a receptor [2] = biological target: T1, C5a receptor
Description: as §1

C5a receptor [3] = biological target: T1, C5a receptor; experiment: Calcium Mobilization Assay (C5a-induced Ca2+ mobilization, FLIPR, differentiated U937 cells); assay type: cell-based; parameters: endogenous in cells; host or cells: U937 cells differentiated with dibutyryl cAMP; conditions: […] recombinant human C5a, 20 min pre-incubation, multiple values = duplicate experiments, read-out: C5a Induced Ca Mobil. Average IC50
Description: U937 cells (human monocytic cell line) were cultured in RPMI-1640 medium supplemented with 10% fetal bovine serum, 10 mM HEPES, 0.11 g/L pyruvate, 0.29 g/L L-glutamine, 100 IU/mL penicillin G and […] streptomycin. Dibutyryl cAMP (1 mM) was added to induce differentiation 2 or 3 days prior to loading the cells with 4.4 μM Fluo-3AM (Molecular Probes) for 30 min at 37° C. in RPMI medium containing 20 mM HEPES, 0.1% bovine serum albumin (BSA) and 5 mM probenecid. After washing, cells were dissolved at 2×10^6 cells/ml in HBSS buffer (Invitrogen 14190-094) supplemented with 10 mM HEPES, 2.5 mM probenecid and 0.1% BSA (pH=7.4), and sedimented by 1 min centrifugation (1500 rpm) in black 96-well plates (Costar) (200,000 cells/well). A 100× concentration range of test compounds was prepared in DMSO and further diluted in HBSS buffer. U937 cells were pre-incubated with compound for 20 minutes at room temperature (1% DMSO), before recombinant human C5a (Sigma) was added to the cells (1.5 nM). Changes in intracellular free Ca^2+ concentration were measured using the Fluorescent Imaging Plate Reader (FLIPR, Molecular Devices). Fluorescence was recorded every second from 10 seconds before the addition of C5a until 2 min after the addition. The maximal fluorescence obtained during this time frame was used for further calculations.

| inhibition at 1 µM (C5a receptor [1]) | inhibition at 10 µM (C5a receptor [1]) | [125I]-C5a Binding % Inhibition 1 μM (C5a receptor [1]) | [125I]-C5a Binding % Inhibition 10 μM (C5a receptor [1]) | Ki (C5a receptor [2]) | IC50 (C5a receptor [3]) | SMILES |
| --- | --- | --- | --- | --- | --- | --- |
| 88% | 92% | 96% | 97% | 10 nM |  | CCc1cccc(CC)c1-c1cc(OC)c2c(n1)CCCC2Nc1cc(OC)ccc1C (stereo not drawn) [Compound 11] |
|  | 87% | 77% and 94% and 96% and 69% | 101% and 100% and 83% | 35 nM |  | CCc1cccc(CC)c1-c1cc(OC)c2c(n1)CCCC2N1CCc2ccccc2C1 (stereo not drawn) [Compound 31] |
| 93% | 94% | 96% | 99% | 9.7 nM | 266 nM | CCc1cccc(CC)c1-c1cc(OC)c2c(n1)CCCC2N1CCc2cccc(C(F)(F)F)c2C1 (stereo not drawn) [Compound 26] |
|  |  |  |  | 8290 nM |  | CCN(c1cccc2ccccc12)C1CCCc2nc(-c3ccccc3)cc(OC)c21 (stereo not drawn) [Compound 133] |
|  | 83% |  | 85% | 179 nM | 1970 nM | CCc1cccc(CC)c1-c1cc(Cl)c2c(n1)CCCC2N(CC)c1cccc2ccccc12 (stereo not drawn) [Compound 60] |
| 55% | 70% |  |  |  | > 10000 nM | CCc1cccc(CC)c1-c1cc(OC)c2c(n1)CCCC2Oc1cccc2ccccc12 (stereo not drawn) [Compound 105] |
| 47% | 59% |  |  |  | > 10000 nM | CCc1cccc(CC)c1-c1cc(OC)c2c(n1)CCCC2N1CCc2ccc(C(=O)OC)cc2C1 (stereo not drawn) [Compound 97] |
|  |  | 20% | 60% |  | > 10000 nM | CCc1cccc(CC)c1-c1cc(OC)c2c(n1)CCCC2N(C)CCCc1ccccc1 (stereo not drawn) [Compound 91] |
| 66% | 76% |  |  |  | 2570 nM | CCc1cccc(CC)c1-c1cc(OC)c2c(n1)CCCC2N(C)c1cc(OC)ccc1OC (stereo not drawn) [Compound 68] |
| 2% | 33% |  |  |  | > 10000 nM | CCc1cccc(CC)c1-c1cc(OC)c2c(n1)CCCC2N(C)C1CCCCC1 (stereo not drawn) [Compound 124] |
| 3% | 39% |  |  |  | > 10000 nM | CCc1cccc(CC)c1-c1cc(OC)c2c(n1)CCCC2N(C)Cc1ccccc1 (stereo not drawn) [Compound 123] |
|  |  | 17% | 51% |  | > 10000 nM | CCc1cccc(CC)c1-c1cc(OC)c2c(n1)CCCC2N(C)CCc1ccccc1 (stereo not drawn) [Compound 87] |
|  |  | 91% | 89% | 57 nM | 1900 nM | CCc1cccc(CC)c1-c1cc(OC)c2c(n1)CCC[C@@H]2N(C)[C@@H]1CCCc2ccccc21 [Compound 59] |
| 83% | 89% |  |  |  | 949 nM | CCc1cccc(CC)c1-c1cc(OC)c2c(n1)CCCC2N(C)c1cc(OC)ccc1Cl (stereo not drawn) [Compound 47] |
| 88% | 92% |  |  |  | 287 nM | CCc1cccc(CC)c1-c1cc(OC)c2c(n1)CCCC2Nc1cc(C(F)(F)F)ccc1C (stereo not drawn) [Compound 28] |
| 83% | 86% |  |  |  | 792 nM | CCc1cccc(CC)c1-c1cc(OC)c2c(n1)CCCC2N(C)c1ccccc1C (stereo not drawn) [Compound 42] |

| inhibition at 1 µM (C5a receptor [1]) | inhibition at 10 µM (C5a receptor [1]) | [125I]-C5a Binding % Inhibition 1 μM (C5a receptor [1]) | [125I]-C5a Binding % Inhibition 10 μM (C5a receptor [1]) | Ki (C5a receptor [2]) | IC50 (C5a receptor [3]) | SMILES |
| --- | --- | --- | --- | --- | --- | --- |
| 16% | 47% |  |  |  | > 10000 nM | CCc1cccc(CC)c1-c1cc(OC)c2c(n1)CCCC2N(CC)c1ncnc2ccccc12 (stereo not drawn) [Compound 135] |
| -25% | -9% |  |  |  | > 10000 nM | CCc1cccc(CC)c1-c1cc(OC)c2c(n1)CCCC2N1CCc2cc(C(=O)O)ccc2C1 (stereo not drawn) [Compound 128] |
| 86% | 86% |  |  |  | 1480 nM | CCc1cccc(CC)c1-c1cc(OC)c2c(n1)CCCC2N(C)c1c(C)ccc2ccccc12 (stereo not drawn) [Compound 52] |
| 76% | 89% |  |  |  | 1730 nM | CCN(c1cccc2ccccc12)C1CCCc2nc(-c3ccccc3C(C)C)cc(OC)c21 (stereo not drawn) [Compound 57] |
| 64% | 74% |  |  |  | > 10000 nM | CCc1cccc(CC)c1-c1cc(OC)c2c(n1)CCCC2Nc1c(C)ccc2ccccc12 (stereo not drawn) [Compound 119] |
| 68% | 80% |  |  |  | > 10000 nM | CCc1cccc(CC)c1-c1cc(OC)c2c(n1)CCCC2N1CCc2ccccc21 (stereo not drawn) [Compound 93] |
| 79% | 90% |  |  |  | 177 nM | CCc1cccc(CC)c1-c1cc(OC)c2c(n1)CCCC2Nc1ccccc1CO (stereo not drawn) [Compound 15] |
| 88% | 90% |  |  |  | 133 nM | CCN(c1cccc2ccccc12)C1CCCc2nc(-c3c(C)cccc3C)cc(OC)c21 (stereo not drawn) [Compound 16] |
|  |  | −7% and 1% |  |  | 2430 nM | CCc1cccc(CC)c1-c1cc(OC)c2c(n1)CCCC2N1CCCc2ccccc21 (stereo not drawn) [Compound 65] |
|  |  |  | 72% |  | 5500 nM | CCc1cccc(CC)c1-c1cc(OC)c2c(n1)CCC[C@@H]2N(C)[C@H]1CCCc2ccccc21 [Compound 77] |
| 85% | 91% |  |  |  | 1210 nM | COc1cc(-c2c(C)cccc2C)nc2c1C(N(C)c1ccc(Cl)c3ccccc13)CCC2 (stereo not drawn) [Compound 48] |
| 19% | 52% |  |  |  | 4900 nM | CCc1cccc(CC)c1-c1cc(OC)c2c(n1)CCCC2Nc1ccccc1C#N (stereo not drawn) [Compound 74] |
| 76% | 85% |  |  |  | 3220 nM | COc1ccc(C)c(N(C)C2CCCc3nc(-c4c(C)cccc4C)cc(OC)c32)c1 (stereo not drawn) [Compound 69] |
| 76% | 88% |  |  |  | 2190 nM | COc1cc(-c2c(C)cccc2C)nc2c1C(N(C)c1cccc3ccccc13)CCC2 (stereo not drawn) [Compound 61] |
| 74% | 80% |  |  |  | > 10000 nM | CCc1cccc(CC)c1-c1cc(OC)c2c(n1)CCCC2N1CCc2cc(C(F)(F)F)ccc2C1 (stereo not drawn) [Compound 102] |
| -24% | -13% |  |  |  | > 10000 nM | CCc1cccc(CC)c1-c1cc(OC)c2c(n1)CCCC2N1CCc2cccc(C(=O)O)c2C1 (stereo not drawn) [Compound 130] |

| SMILES | inhibition at 1 µM (C5a receptor [1]) | inhibition at 10 µM (C5a receptor [1]) | [125I]-C5a Binding % Inhibition 1 μM (C5a receptor [1]) | [125I]-C5a Binding % Inhibition 10 μM (C5a receptor [1]) | Ki (C5a receptor [2]) | IC50 (C5a receptor [3]) |
| --- | --- | --- | --- | --- | --- | --- |
| CCN(c1cccc2ccccc12)C1CCCc2nc(-c3ccccc3F)cc(OC)c21 (stereo not drawn) [Compound 73] |  | 80% | 55% and 34% | 70% | 3690 nM | 4590 nM |
| CCN(c1cccc2ccccc12)C1CCCc2nc(-c3cccc4ccccc34)cc(OC)c21 (stereo not drawn) [Compound 78] | 71% | 85% | 72% | 95% | 368 nM | 5860 nM |
| CCc1cccc(CC)c1-c1cc(OC)c2c(n1)CCCC2N1CCc2ccc(F)cc2C1 (stereo not drawn) [Compound 45] | 74% | 87% |  |  |  | 878 nM |
| CCc1cccc(CC)c1-c1cc(OC)c2c(n1)CCCC2N1CCc2cccc(C(=O)OC)c2C1 (stereo not drawn) [Compound 44] | 77% | 87% |  |  |  | 839 nM |
| CCc1cccc(CC)c1-c1cc(OC)c2c(n1)CCCC2N1CCc2ccc(Cl)cc2C1 (stereo not drawn) [Compound 51] | 83% | 89% |  |  |  | 1410 nM |
| CCc1cccc(CC)c1-c1cc(OC)c2c(n1)CCCC2N(C)c1ccc(OC)c2ccccc12 (stereo not drawn) [Compound 36] | 86% | 87% |  |  |  | 531 nM |
| CCc1cccc(CC)c1-c1cc(OC)c2c(n1)CCCC2N1CCc2c(Cl)cccc2C1 (stereo not drawn) [Compound 56] | 84% | 85% |  |  |  | 1690 nM |
